{"source": "patent US12622919B2", "about": "“Methods for treating hypervirulent Klebsiella pneumoniae infection” (priority 2023, dated 2026)", "key": {"hvKp strain 17ZR101 [1]": {"system": "hvKp strain 17ZR101", "test": "Mouse sepsis model, ~10^4 CFU 17ZR101, drug at 3 hpi: survival, body weight, spleen weight", "assay_type": "in vivo, C57BL6 mice", "method": "All animal experiments were approved by the Animal Ethics Committee of the City University of Hong Kong and followed the guidelines of the Institutional Laboratory Animal Research Unit. Six- to eight-weeks-old animals of both sexes were used in this study. For the sepsis model, mice were intravenously injected with ˜10^4 colony forming units (CFU) of the test stain resuspended in 200 μL PBS. For the pneumonia model, mice were anesthetized by inhaling isoflurane, and ˜10^6 CFU of the strain resuspended 10 μL PBS were dripped into the mouse's nasal cavity. The heads of the mice were hold upright for 30 s afterwards.\n(§1) In ASA, NPXS, CTX, AzA, CsA, DXMS, and F-ara treatment experiment, mice challenged by 17ZR101 were given intraperitoneally 100 mg kg^−1 ASA, 50 mg kg^−1 NPXS, 150 mg kg^−1 CTX, 200 mg kg^−1 AzA, 20 mg kg^−1 CsA, 10 mg kg^−1 DXMS and 40 mg kg^−1 F-ara at 3 hpi, another group treated with an equal volume of PBS or 200 μL of corn oil solution was included as a control group. In ASA and CAZ/AVI combination treatment experiment, mice were given intraperitoneally 100 mg kg^−1 ASA plus 8 mg kg^−1 CAZ and 4 mg kg^−1 AVI or 8 mg kg^−1 CAZ and 4 mg kg^−1 AVI at 1 hpi. The health status and weight of all mice were observed and recorded."}, "[2]": {"system": "K. pneumoniae strain HKU1 (clinical cKp strain)", "test": "Antibiotic susceptibility test (microdilution), strain HKU1", "assay_type": "cell-based, Klebsiella pneumoniae", "settings": "CLSI", "method": "(§2) The antimicrobial susceptibility of the two Klebsiella strains was determined by the microdilution method according to the guidelines recommended by the Clinical and Laboratory Standards Institute^2. Escherichia coli strain ATCC 25922 was included as a quality control strain. All tests were performed in duplicate, and each test included three biological replicates."}, "[3]": {"system": "K. pneumoniae strain 17ZR101 (K2 hvKp clinical strain)", "test": "Antibiotic susceptibility test (microdilution), strain 17ZR101", "assay_type": "cell-based, Klebsiella pneumoniae", "settings": "CLSI", "method": "as §2"}, "IL-6": {"system": "IL-6", "test": "Serum IL-6 by ELISA in 17ZR101-infected mice", "assay_type": "in vivo, C57BL6 mice", "settings": "17ZR101-infected mice treated with ASA; untreated 587.965", "method": "(§3) The serum level of IL-6 of the test animals was measured by using the IL-6 Mouse Uncoated ELISA Kit (Thermo fisher scientific, 88-7064-88), IL-1β level by IL-1 beta Mouse Uncoated ELISA Kit (Thermo fisher scientific, 88-7013-86) and that of IFN-γ was measured by using the IFN gamma Mouse Uncoated ELISA Kit (Thermo fisher scientific, 88-7314-88) according to instructions of the manufacturer.\nas §1"}, "[4]": {"system": "F4/80+ cells and Ly6G+ cells in lungs", "test": "Flow cytometry of lung cells at 4 hpi, 10^7 CFU hvKp", "assay_type": "in vivo, C57BL6 mice", "method": "(§4) Cells collected from different tissues of the test animals were subjected to flow cytometry analysis as described previously^4. Cells from spleens were obtained by mashing the organ through a 70-μm cell strainer and collected in a tube containing RPMI 1640 medium supplemented with 5% fetal bovine serum. To prepare lung cells, lung tissues were excised and incubated in HBSS containing 1×HEPES and Collagenase type I. The tissue fragments were forced through a 70-μm strainer as described above. Red blood cells were lysed with ACK lysing buffer.\nDead cells were excluded from the analysis by propidium iodide (Sigma-Aldrich Corporation, P4170-1G) or ghost Dye™ violet 510 (Tonbo Biosciences, 13-0870-T100) staining in all flow cytometry experiments. […] The acquired data were analyzed by the FlowJo software (Version 10.0.7, Treestar, Palo Alto, CA).\nas §1, with “In ASA and CAZ/AVI combination treatment experiment, mice were given intraperitoneally 100 mg kg^−1 ASA plus 8 mg kg^−1 CAZ and 4 mg kg^−1 AVI or 8 mg kg^−1 CAZ and 4 mg kg^−1 AVI at 1 hpi.” left out"}, "[5]": {"system": "Stat1 and STAT1-regulated chemokines, M1 markers, Cox-1, Cox-2", "test": "RNA-Seq / qPCR of lung cells of 17ZR101-infected mice", "assay_type": "in vivo, C57BL6 mice", "method": "RNA was extracted from lung samples by homogenization in TRIzol reagent (15596026, Thermo Fisher Scientific), followed by chloroform extraction and isopropanol precipitation. The extracted RNA was reverse-transcribed into cDNA by using a SuperScript® III First-Strand Synthesis SuperMix kit (11752050, ThermoFisher Scientific). Real-time quantitative PCR was performed by using a QuantStudio™ 7 Pro Real-Time PCR System, following the manufacturer's instructions. cDNA samples were tested in duplicates, and the relative amount of mRNA in different samples (Gapdh, Il1b, Ifng, Cxcl2, Cxcl10, Ifna, Ifnb, Ifnar1, Stat1, Hmgb1, Il-6, Myd88, and Tlr4) was determined by the comparative threshold cycle (ΔΔCT) method, using the glyceraldehyde-3-phosphate dehydrogenase gene (Gapdh) for normalization.\nTotal RNA was extracted from lung samples by homogenization in TRIzol reagent, followed by chloroform extraction and isopropanol precipitation. DNA was removed by DNase treatment (TURBO DNA-Free™ Kit). RNA samples were sent to Novogene (HK) Company Limited for sequencing. Routine procedures of mRNA purification and library generation were performed by Novogene. Sequencing reads alignment was performed by using HISAT2. Count aligned reads and quantification were calculated based on exon regions using FeatureCounts. […] Gene Set Enrichment Analysis was performed for gene ontology enrichment analysis. The raw RNA-seq data has been deposited in NCBI database under the accession number PRJNA851242.\nas §1"}, "hvKp strain 17ZR101 [6]": {"system": "hvKp strain 17ZR101", "test": "Bacteria burden in organs, 10^7 CFU hvKp", "assay_type": "in vivo, C57BL6 mice", "settings": "4 hpi", "method": "Ten-fold dilutions of tissue homogenate were prepared and spread onto MacConkey agar plates containing 2 μg mL^−1 cefotaxime to determine the bacterial load in different organs of the infected animals. To determine the number of intracellular bacteria, cells prepared for flow cytometry from lungs and spleens were collected and then incubated with 300 μg mL^−1 amikacin to kill the extracellular bacteria. The number of total and intracellular bacteria was counted and presented as the number of CFU g^−1 tissue.\nas §1"}, "[7]": {"system": "F4/80+ cells (IMs), neutrophils in lungs", "test": "Flow cytometry of lung cells, 10^4 CFU 17ZR101 sepsis model", "assay_type": "in vivo, C57BL6 mice", "settings": "ASA at 3 hpi", "method": "as §4\nDead cells were excluded from the analysis by propidium iodide (Sigma-Aldrich Corporation, P4170-1G) or ghost Dye™ violet 510 (Tonbo Biosciences, 13-0870-T100) staining in all flow cytometry experiments. Fluorescently labeled mAbs against mouse CD45, CD11b, CD206, CD80, Ly6G, CD11c, SiglecF, Ly6C and appropriate isotype controls were obtained from Biolegend. For intracellular cytokine measurement, cells were incubated with Cell Activation Cocktail (BioLegend, 423303) at 37° C. in the dark for 4 h. Anti-IFN-γ-PE antibody (eBioscience, 12-7177-81) was used to determine intracellular expression of IFN-γ. For p-STAT1 measurement, the cells were fixed with IC fixation buffer (eBioscience, 00-8222-49) for 30 min and then suspended in 1 mL of methanol to permeabilize the cell membrane, left to stand for 10 min on ice. At the time of p-STAT1 measurement, the cell suspensions were washed with FACS buffer and then stained with PE-anti-STAT1 Phospho antibody (Biolegend, 686404). […] The acquired data were analyzed by the FlowJo software (Version 10.0.7, Treestar, Palo Alto, CA).\nas §1, with “In ASA and CAZ/AVI combination treatment experiment, mice were given intraperitoneally 100 mg kg^−1 ASA plus 8 mg kg^−1 CAZ and 4 mg kg^−1 AVI or 8 mg kg^−1 CAZ and 4 mg kg^−1 AVI at 1 hpi.” left out"}, "IFN-γ": {"system": "IFN-γ", "test": "Serum IFN-γ by ELISA in 17ZR101-infected mice", "assay_type": "in vivo, C57BL6 mice", "settings": "17ZR101-infected mice treated with F-ara; untreated 2742.872", "method": "as §3, §1"}, "[8]": {"settings": "RNA-Seq lung cells, 17ZR101+ASA vs 17ZR101, unit not given"}}}
{"compound": "O=P1(N(CCCl)CCCl)NCCCO1", "note": "(stereo not shown) [cyclophosphamide]", "values": [{"measurement": "protective effect (survival)", "setting": "hvKp strain 17ZR101 [1]; 17ZR101 infection, 150 mg kg^−1 CTX i.p. at 3 hpi", "result": "did not exhibit any protective effect"}]}
{"compound": "C[C@@H](O)[C@H]1C(=O)N2C(C(=O)O)=C(S[C@@H]3CN[C@H](C(=O)N(C)C)C3)[C@H](C)[C@H]12", "note": "[meropenem]", "values": [{"measurement": "antimicrobial susceptibility", "setting": "[2]", "result": "resistant"}, {"measurement": "antimicrobial susceptibility", "setting": "[3]", "result": "resistant"}]}
{"compound": "CO/N=C(\\C(=O)N[C@@H]1C(=O)N2C(C(=O)O)=C(COC(C)=O)CS[C@H]12)c1csc(N)n1", "note": "[cefotaxime]", "values": [{"measurement": "antimicrobial susceptibility", "setting": "[2]", "result": "resistant"}, {"measurement": "antimicrobial susceptibility", "setting": "[3]", "result": "resistant"}]}
{"compound": "NCC[C@H](O)C(=O)N[C@@H]1C[C@H](N)[C@@H](O[C@H]2O[C@H](CN)[C@@H](O)[C@H](O)[C@H]2O)[C@H](O)[C@H]1O[C@H]1O[C@H](CO)[C@@H](O)[C@H](N)[C@H]1O", "note": "[amikacin]", "values": [{"measurement": "antimicrobial susceptibility", "setting": "[2]", "result": "susceptible"}, {"measurement": "antimicrobial susceptibility", "setting": "[3]", "result": "susceptible"}]}
{"compound": "CC(=O)Oc1ccccc1C(=O)O", "note": "[ASA, acetylsalicylic acid]", "values": [{"measurement": "serum IL-6 production", "setting": "IL-6", "result": 57.964, "unit": "pg/mL"}, {"measurement": "spleen/body weight ratio", "setting": "hvKp strain 17ZR101 [1]; 12 hpi, ASA 100 mg kg^−1 i.p. at 3 hpi, untreated 0.863%", "result": 0.495, "unit": "%"}, {"measurement": "bodyweight loss", "setting": "hvKp strain 17ZR101 [1]; 12 hpi, ASA 100 mg kg^−1 i.p. at 3 hpi, untreated 7.206%", "result": 2.076, "unit": "%"}, {"measurement": "mice protected (survival)", "setting": "hvKp strain 17ZR101 [1]; 17ZR101 infection, 100 mg kg^−1 ASA i.p. at 3 hpi, at 48 hpi", "result": 100, "unit": "%"}, {"measurement": "F4/80+ cells infiltration in lungs", "setting": "[4]", "result": "could suppress F4/80^+ cells infiltration"}, {"measurement": "Ly6G+ cells in lungs", "setting": "[4]", "result": "not significantly"}, {"measurement": "expression level of M1 macrophage markers", "setting": "[5]; RNA-Seq and qPCR, lung cells, ASA", "result": "decrease in expression level of M1 macrophage markers"}, {"measurement": "Cxcl9 expression change", "setting": "[5]; [8]", "result": "−2.118"}, {"measurement": "Cxcl10 expression change", "setting": "[5]; [8]", "result": "−3.590"}, {"measurement": "Cxcl11 expression change", "setting": "[5]; [8]", "result": "−2.098"}, {"measurement": "Stat1 expression change", "setting": "[5]; RNA-Seq lung cells, 17ZR101+ASA vs 17ZR101, unit not printed here (Log 2 fold change)", "result": "−1.056"}, {"measurement": "Cox-1 and Cox-2 expression at the mRNA level", "setting": "[5]; upon ASA administration", "result": "no significant difference"}, {"measurement": "bacteria burden in various organs", "setting": "hvKp strain 17ZR101 [6]", "result": "without contributing to bacteria clearance"}, {"measurement": "F4/80+ cells infiltration into the lungs", "setting": "[7]", "result": "suppressed F4/80^+ cells infiltration into the lungs"}, {"measurement": "levels of neutrophils in the lungs", "setting": "[7]", "result": "slight decrease"}, {"measurement": "M1 macrophage polarization", "setting": "[7]; CD80 MFI", "result": "able to inhibit M1 macrophage polarization"}]}
{"compound": "Nc1nc(F)nc2c1ncn2[C@@H]1O[C@H](CO)[C@@H](O)[C@@H]1O", "note": "[F-ara, Fludarabine]", "values": [{"measurement": "mice protected from death", "setting": "hvKp strain 17ZR101 [1]; 17ZR101 infection, 40 mg kg^−1 F-ara i.p. at 3 hpi, within 48 h", "result": 50, "unit": "%"}, {"measurement": "serum IFN-γ level", "setting": "IFN-γ", "result": 445.133, "unit": "pg/mL"}]}
{"compound": "CC(C)(O/N=C(\\C(=O)N[C@@H]1C(=O)N2C(C(=O)[O-])=C(C[n+]3ccccc3)CS[C@H]12)c1csc(N)n1)C(=O)O", "note": "[ceftazidime]", "values": [{"measurement": "antimicrobial susceptibility", "setting": "[2]", "result": "resistant"}, {"measurement": "antimicrobial susceptibility", "setting": "[3]", "result": "resistant"}]}
{"compound": "polymyxin B", "values": [{"measurement": "antimicrobial susceptibility", "setting": "[2]", "result": "susceptible"}, {"measurement": "antimicrobial susceptibility", "setting": "[3]", "result": "susceptible"}]}
{"compound": "CN(C)c1cc(NC(=O)CNC(C)(C)C)c(O)c2c1C[C@H]1C[C@H]3[C@H](N(C)C)C(O)=C(C(N)=O)C(=O)[C@@]3(O)C(O)=C1C2=O", "note": "[tigecycline]", "values": [{"measurement": "antimicrobial susceptibility", "setting": "[2]", "result": "susceptible"}, {"measurement": "antimicrobial susceptibility", "setting": "[3]", "result": "susceptible"}]}
